Measured values as given in patent US10155021B2, “Antimicrobial 4-oxoquinolizines” (Emergent Product Development Gaithersburg Inc., priority 2011, dated 2018).
Converted amounts (≈) assume the structure as drawn. Read-outs that look alike come from different tables or passages of the source.

Assays:
A. baumannii A473 [1] = assay: Preliminary MBC without and with sub-inhibitory polymyxin B (Example 4); format: cell-based, Acinetobacter baumannii; conditions: Acinetobacter baumannii, A473, A. baumannii A473, without polymyxin B, read-out: MBC without PB
P. aeruginosa 1388-3-02 = assay: MIC, panel of quinolone-resistant strains (CLSI); format: cell-based; conditions: Pseudomonas aeruginosa, 1388302; CIP R, POL R
[2] = system: Acinetobacter sp. (H064200250); assay: MIC without and with sub-inhibitory polymyxin B (Example 4); format: cell-based; conditions: Acinetobacter
A. baumannii A401 [3] = assay: as above; format: cell-based, Acinetobacter baumannii; conditions: Acinetobacter baumannii, A401, A baumannii A 401, without polymyxin B, read-out: MIC without PB
A. baumannii J2 = assay: as above; format: cell-based, Acinetobacter baumannii; conditions: Acinetobacter baumannii, J2, A. baumannii J2, without polymyxin B, read-out: MIC without PB
E. coli CTX-M-15 = assay: MIC, panel of quinolone-resistant strains (CLSI); format: cell-based; conditions: Escherichia coli, CTXM15; CIP R, ESBL
A. baumannii A473 [4] = assay: MIC without and with sub-inhibitory polymyxin B (Example 4); format: cell-based, Acinetobacter baumannii; conditions: Acinetobacter baumannii
[5] = system: resistant strains of A. baumannii and one strain of Acinetobacter sp.; assay: MIC without and with sub-inhibitory polymyxin B, whole panel / MIC ranges (Example 4; also strains not listed separately); format: cell-based; conditions: Acinetobacter baumannii
E. coli 2906 = assay: MIC, panel of quinolone-resistant strains (CLSI); format: cell-based; conditions: Escherichia coli, CIP R
A. baumannii A329 [6] = assay: MIC determination for Acinetobacter strains (Example 3); format: cell-based; conditions: LEV R, CIP R, MRP R, IMP R, AMK R, TET R
A. baumannii A329 [7] = assay: Preliminary MBC without and with sub-inhibitory polymyxin B (Example 4); format: cell-based, Acinetobacter baumannii; conditions: Acinetobacter baumannii, A329, A. baumannii A329, without polymyxin B, read-out: MBC without PB
A. baumannii A390 = assay: as above; format: cell-based, Acinetobacter baumannii; conditions: Acinetobacter baumannii, A390, A. baumannii A390, without polymyxin B, preliminary MBC, read-out: MBC without PB
A. baumannii A489 [8] = assay: as above; format: cell-based, Acinetobacter baumannii; conditions: Acinetobacter baumannii, A489, A. baumannii A489, without polymyxin B, read-out: MBC without PB
A. baumannii A472 [9] = assay: MIC without and with sub-inhibitory polymyxin B (Example 4); format: cell-based, Acinetobacter baumannii; conditions: Acinetobacter baumannii, A472, A. baumannii A472, without polymyxin B, read-out: MIC without PB
A. baumannii A401 [10] = assay: Preliminary MBC without and with sub-inhibitory polymyxin B (Example 4); format: cell-based, Acinetobacter baumannii; conditions: Acinetobacter baumannii, A401, A baumannii A 401, without polymyxin B, preliminary MBC, read-out: MBC without PB
A. baumannii A472 [11] = assay: as above; format: cell-based, Acinetobacter baumannii; conditions: Acinetobacter baumannii, A472, A. baumannii A472, without polymyxin B, read-out: MBC without PB
P. aeruginosa 143-3-03 = assay: MIC, panel of quinolone-resistant strains (CLSI); format: cell-based; conditions: Pseudomonas aeruginosa, 143303; CIP I, POL R
A. baumannii ATCC 19606 = assay: MIC without and with sub-inhibitory polymyxin B (Example 4); format: cell-based, Acinetobacter baumannii; conditions: Acinetobacter baumannii, ATCC19606, A. baumannii ATCC 19606; without polymyxin B; 2nd experiment; visual reading; read-out: MIC without PB
[12] = system: Acinetobacter spp. H064200250; assay: MIC determination for Acinetobacter strains (Example 3); format: cell-based, Acinetobacter sp.; conditions: LEV R, CIP R, MRP R, IMP I
A. baumannii A472 [13] = assay: as above; format: cell-based; conditions: LEV R, CIP R, MRP I, IMP I, AMK R, TET R
A. baumannii A489 [14] = assay: MIC without and with sub-inhibitory polymyxin B (Example 4); format: cell-based, Acinetobacter baumannii; conditions: Acinetobacter baumannii, A489, A. baumannii A489, without polymyxin B, read-out: MIC without PB
Klebsiella ssp KPC-3 = assay: MIC, panel of quinolone-resistant strains (CLSI); format: cell-based, Klebsiella spp; conditions: KPC3, CIP R, ESBL
Pseudomonas ssp PER-1 = assay: MIC, panel of quinolone-resistant strains (CLSI); format: cell-based, Pseudomonas spp; conditions: PER1, CIP R, ESBL
[15] = system: Acinetobacter sp. (H064200250); assay: Preliminary MBC without and with sub-inhibitory polymyxin B (Example 4); format: cell-based; conditions: Acinetobacter, without polymyxin B, preliminary MBC, read-out: MBC without PB
Method in brief: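 Bactericidal endpoint scored visually on plates incubated at 37° C (18-20 hours): the lowest concentration where growth fell about 90% versus the positive control, generally leaving one colony or none.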

A. baumannii A 401 = assay: MIC determination for Acinetobacter strains (Example 3); format: cell-based; conditions: A401, LEV R, CIP R, AMK R, TET R

`Cc1c(-c2cc(F)c(N)cc2F)ccn2c(=O)c(C(=O)O)cc(C3CC3)c12` [Compound 2, 8-(3,6-difluoro-4-amino-phenyl)-1-cyclopropyl-9-methyl-4-oxo-quinolizine-3-carboxylic acid] was tested, and the MBC (A. baumannii A473 [1]; 1st experiment) was 2 µg/mL (≈ 5.4 µM), the MBC (A. baumannii A473 [1]; 2nd experiment) was 4 µg/mL (≈ 10.8 µM) and the MIC (P. aeruginosa 1388-3-02) was 8 µg/mL (≈ 21.6 µM). For the same molecule, the MIC ([2]; Acinetobacter spp. H064200250 (OXA51), without polymyxin B, 2nd experiment, visual reading, read-out: MIC without PB) was 4 µg/mL (≈ 10.8 µM), the MIC ([2]; Acinetobacter spp. H064200250, without polymyxin B, 1st experiment, read-out: MIC without PB) was 4 µg/mL (≈ 10.8 µM) and the MIC ([2]; read-out: MIC +[…] PB, read with alamar blue, Acinetobacter spp. H064200250 (OXA51), +[…] polymyxin B, 2nd experiment, MIC read with alamar blue) was 0.06 µg/mL (≈ 0.162 µM). It also gave an MIC (A. baumannii A401 [3]; 1st experiment) of 4 µg/mL (≈ 10.8 µM), an MIC (A. baumannii A401 [3]; 2nd experiment, visual reading) of 4 µg/mL (≈ 10.8 µM) and an MIC (A. baumannii J2; 1st experiment) of 4 µg/mL (≈ 10.8 µM). For the same molecule, the MIC (A. baumannii J2; 2nd experiment, visual reading) was 4 µg/mL (≈ 10.8 µM), the MIC (E. coli CTX-M-15) was over 32 µg/mL and the MIC (A. baumannii A473 [4]; A473, A. baumannii A473, without polymyxin B, 1st experiment, read-out: MIC without PB) was 8 µg/mL (≈ 21.6 µM). It also gave an MIC (A. baumannii A473 [4]; A473, A. baumannii A473, without polymyxin B, 2nd experiment, visual reading, read-out: MIC without PB) of 4 µg/mL (≈ 10.8 µM), an MIC (A. baumannii A473 [4]; A473, read-out: MIC +0.06 μg/ml PB, read with alamar blue, A. baumannii A473, +0.06 μg/ml polymyxin B, 2nd experiment, MIC read with alamar blue) of 0.125 µg/mL and an MIC ([5]; read-out: MIC range without PB 01-10-2008 n = 8, without polymyxin B, 1st experiment, 8 strains) of 0.5 to 16 µg/mL (≈ 1.35 to 43.2 µM). The MIC ([5]; without polymyxin B, 2nd experiment, 11 strains, read-out: MIC range without PB 14-10-2008 n = 11) was 1 to 16 µg/mL (≈ 2.7 to 43.2 µM), the MIC (E. coli 2906) was 32 µg/mL (≈ 86.4 µM) and the MIC (A. baumannii A329 [6]) was 8 µg/mL (≈ 21.6 µM). For the same molecule, the MBC (A. baumannii A329 [7]; 1st experiment) was 8 µg/mL (≈ 21.6 µM), the MBC (A. baumannii A329 [7]; 2nd experiment) was 8 µg/mL (≈ 21.6 µM) and the MBC (A. baumannii A390; 2nd experiment) was 16 µg/mL (≈ 43.2 µM). The MBC (A. baumannii A390; 1st experiment) was 8 µg/mL (≈ 21.6 µM), the MBC (A. baumannii A489 [8]; 1st experiment) was 2 µg/mL (≈ 5.4 µM) and the MBC (A. baumannii A489 [8]; 2nd experiment) was 4 µg/mL (≈ 10.8 µM). It also gave an MIC (A. baumannii A472 [9]; 1st experiment) of 4 µg/mL (≈ 10.8 µM), an MIC (A. baumannii A472 [9]; 2nd experiment, visual reading) of 4 µg/mL (≈ 10.8 µM) and an MBC (A. baumannii A401 [10]; 2nd experiment) of 4 µg/mL (≈ 10.8 µM). It also gave an MBC (A. baumannii A401 [10]; 1st experiment) of 2 µg/mL (≈ 5.4 µM), an MBC (A. baumannii A472 [11]; 1st experiment) of 4 µg/mL (≈ 10.8 µM) and an MBC (A. baumannii A472 [11]; 2nd experiment) of 8 µg/mL (≈ 21.6 µM). The MIC (P. aeruginosa 143-3-03) was 2 µg/mL (≈ 5.4 µM), the MIC (A. baumannii ATCC 19606) was 0.125 µg/mL (≈ 0.338 µM) and the MIC [12] was 4 µg/mL (≈ 10.8 µM). It also gave an MIC (A. baumannii A472 [13]) of 4 µg/mL (≈ 10.8 µM), an MIC (A. baumannii A489 [14]; 1st experiment) of 2 µg/mL (≈ 5.4 µM) and an MIC (A. baumannii A489 [14]; 2nd experiment, visual reading) of 4 µg/mL (≈ 10.8 µM). It also gave an MIC (Klebsiella ssp KPC-3) of 8 µg/mL (≈ 21.6 µM), an MIC (Pseudomonas ssp PER-1) of 16 µg/mL (≈ 43.2 µM) and an MBC ([15]; Acinetobacter spp. H064200250 (OXA51), 2nd experiment) of 8 µg/mL (≈ 21.6 µM). For the same molecule, the MBC ([15]; Acinetobacter spp. H064200250, 1st experiment) was 4 µg/mL (≈ 10.8 µM) and the MIC (A. baumannii A 401) was 4 µg/mL (≈ 10.8 µM).
